Laboratory results published in US10307413B2, “Tetrahydro- and dihydro-isoquinoline PRMT5 inhibitors and uses thereof” (Epizyme, Inc., priority 2013, dated 2019).
Read-outs that look alike come from different tables or passages of the source.

What was measured:
[1] = tested on: symmetric di-methyl arginine in Z-138 cells; assay: Z-138 Methylation Assay (In Cell Western for symmetric di-methyl arginine and DNA content); format: cell-based; conditions: Homo sapiens, read-out: ICW EC50
Outline: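 Z-138 cells (50,000 cells/mL) treated with compound 96 h at 37 °C, then fixed and stained for symmetric di-methyl arginine (800 nm) with DRAQ5 DNA counterstain (700 nm) on Licor Odyssey.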

Z-138 cell line = assay: Z-138 Proliferation Assay (Cell Titer Glo, 5 days); format: cell-based; conditions: Homo sapiens, read-out: Proliferation EC50
Outline: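 Z-138 cells exposed 5 days at 37 °C, 5% CO2 to nine-point 3-fold dilutions (final top 20 μM, 0.2% DMSO), in triplicate. Viability read as ATP by CellTiter-Glo luminescence; IC50 from 4-parameter fit of normalized dose-response curves.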

SMILES	EC50 [1] [µM]	EC50 ([1]; In Cell Western methylation) [µM]	EC50 (Z-138 cell line; 120 h, Z-138 cells, 5 days) [µM]	EC50 (Z-138 cell line; Z-138, 120 h) [µM]	EC50 (Z-138 cell line; 120 h, Z-138 cells, 5 days, Cell Titer Glo) [µM]
O=C(NCC(O)CN1CCc2ccccc2C1)c1cccc(N2CCOCC2)c1 (stereo not drawn) [Compound 14, N-(3-(3,4-dihydroisoquinolin-2(1H)-yl)-2-hydroxypropyl)-3-morpholinobenzamide]	0.101 to 1		1 to 10		
O=C(NCC(O)CN1CCc2ccccc2C1)c1ncc[nH]1 (stereo not drawn) [Compound 170]	0.101 to 1		> 20		
O=C(NC[C@H](O)CN1CCc2ccccc2C1)c1ccnc(NCC2CCCNC2)c1 (stereo partly drawn) [Compound 236]	0.101 to 1		1 to 10		
O=C(NC[C@H](O)CN1CCc2ccccc2C1)c1cc(NC2CCNCC2)ncn1 [Compound 180]	0.101 to 1		10 to 50		
CN1CCC(Nc2cccc(C(=O)NCC(O)CN3CCc4ccccc4C3)c2)CC1 (stereo not drawn) [Compound 123]	0.101 to 1		1 to 10		
O=C(NC[C@H](O)CN1CCc2ccccc2C1)c1ccc2c(c1)CCO2 [Compound 243]	0.101 to 1		1 to 10		
O=C(NC[C@H](O)CN1CCc2ccccc2C1)c1cnc2ccccc2n1 [Compound 245]	0.101 to 1		10 to 50		
CN(C)CCOc1cccc(C(=O)NCC(O)CN2CCc3ccccc3C2)c1 (stereo not drawn) [Compound 28, N-(3-(3,4-dihydroisoquinolin-2(1H)-yl)-2-hydroxypropyl)-3-(2-(dimethylamino)ethoxy)benzamide]	0.101 to 1		10 to 50		
O=C(NCC(O)CN1CCc2ccccc2C1)c1cc(Cl)cc(NC2CCOCC2)c1 (stereo not drawn) [Compound 64]	0.101 to 1		1 to 10		
O=C(NC[C@H](O)CN1CCc2ccccc2C1)c1ccc2ncsc2c1 [Compound 273]	0.101 to 1		1 to 10		
O=C(NCC(O)CN1CCc2ccccc2C1)c1cccc(CN2CCN(CCO)CC2)c1 (stereo not drawn) [Compound 113]	0.101 to 1		10 to 50		
O=C(NC[C@H](O)CN1CCc2ccccc2C1)c1cc(OC2CCNCC2)ncn1 [Compound 258]	0.101 to 1		10 to 50		
CNC(=O)CNCc1cccc(C(=O)NCC(O)CN2CCc3ccccc3C2)c1 (stereo not drawn) [Compound 117]	0.101 to 1		> 20		
O=C(NC[C@H](O)CN1CCc2ccccc2C1)c1n[nH]c2ccccc12 [Compound 242]	0.101 to 1		1 to 10		
CNCCN(C)c1cc(C(=O)NC[C@H](O)CN2CCc3ccccc3C2)ccn1 [Compound 233]	0.101 to 1		1 to 10		
CN1CCCC1c1cccc(C(=O)NCC(O)CN2CCc3ccccc3C2)c1 (stereo not drawn) [Compound 34, N-(3-(3,4-dihydroisoquinolin-2(1H)-yl)-2-hydroxypropyl)-3-(1-methylpyrrolidin-2-yl) benzamide]	0.101 to 1		10 to 50		
Cn1cc(C(=O)NC[C@H](O)CN2CCc3ccccc3C2)c2ccccc21 [Compound 246]	0.101 to 1			1 to 10	
O=C(NCC(O)CN1CCc2ccccc2C1)c1cccc(NC2CCNCC2)c1 (stereo not drawn) [Compound 94]	0.101 to 1		10 to 50		
O=C(NCC(O)CN1CCc2ccccc2C1)c1ccc2nccnc2c1 (stereo not drawn) [Compound 85]	0.101 to 1		10 to 50		

SMILES	EC50 [1] [µM]	EC50 ([1]; In Cell Western methylation) [µM]	EC50 (Z-138 cell line; 120 h, Z-138 cells, 5 days) [µM]	EC50 (Z-138 cell line; Z-138, 120 h) [µM]	EC50 (Z-138 cell line; 120 h, Z-138 cells, 5 days, Cell Titer Glo) [µM]
NCCN1CCN(Cc2cccc(C(=O)NCC(O)CN3CCc4ccccc4C3)c2)CC1 (stereo not drawn) [Compound 147]	0.101 to 1		10 to 50		
O=C(NC[C@H](O)CN1CCc2ccccc2C1)c1ccc2cc(O)ccc2c1 [Compound 318]	0.101 to 1		1 to 10		
O=C(NCC(O)CN1CCc2ccccc2C1)c1cccc(NC2CCNC2)c1 (stereo not drawn) [Compound 93]	1 to 10		> 20		
COc1ccc2cc(C(=O)NCC(O)CN3CCc4ccccc4C3)ccc2n1 (stereo not drawn) [Compound 155]	1 to 10		> 20		
O=C(NC[C@H](O)CN1CCc2ccccc2C1)c1c(O)ccc2ccccc12 [Compound 327]	0.101 to 1		> 20		
O=C(NCC(O)CN1CCc2ccccc2C1)c1ccc(NC2CCNCC2)cc1 (stereo not drawn) [Compound 138]	0.101 to 1		10 to 50		
O=C(NC[C@@H](O)CN1CCc2ccccc2C1)c1cccc(-c2ccccn2)c1 [Compound 19]	0.101 to 1		10 to 50		
O=C(NCC(O)CN1CCc2ccccc2C1)c1cccc(CO)c1 (stereo not drawn) [Compound 151]	0.101 to 1		> 20		
CN(C)C(=O)CCCN1CCN(Cc2cccc(C(=O)NCC(O)CN3CCc4ccccc4C3)c2)CC1 (stereo not drawn) [Compound 194]	0.101 to 1		1 to 10		
CN(CC(N)=O)Cc1cccc(C(=O)NCC(O)CN2CCc3ccccc3C2)c1 (stereo not drawn) [Compound 195]	0.101 to 1		10 to 50		
CN(CC(O)CN1CCc2ccccc2C1)C(=O)c1cccc(NC2CCOCC2)c1 (stereo not drawn) [Compound 71]	0.101 to 1		1 to 10		
O=C(NC[C@H](O)CN1CCc2ccccc2C1)c1ccnc(Nc2ccncc2)c1 [Compound 412]		< 0.1			0.101 to 1
O=C(NCC(O)CN1CCc2ccccc2C1)c1ccnc(NC2CCOCC2)n1 (stereo not drawn) [Compound 62]	0.101 to 1		10 to 50		
CS(=O)(=O)N1CCC(Oc2cc(C(=O)NC[C@H](O)CN3CCc4ccccc4C3)ncn2)CC1 [Compound 286]	< 0.1		1 to 10		
CN(C[C@H](O)CN1CCc2ccccc2C1)C(=O)c1cccc(NC2CCOCC2)c1 [Compound 111]	0.101 to 1		1 to 10		
O=C(NC[C@H](O)CN1CCc2ccccc2C1)c1cncc(NC2CCOCC2)c1 [Compound 298]	< 0.1		0.101 to 1		
O=C(NCC(O)CN1CCc2ccccc2C1)c1cccc(NC2CCOCC2)c1F (stereo not drawn) [Compound 79]	< 0.1		0.101 to 1		
CC(=O)N1CCN(Cc2cccc(C(=O)NCC(O)CN3CCc4ccccc4C3)c2)CC1 (stereo not drawn) [Compound 100]	< 0.1		1 to 10		
CN1CCN(Cc2cccc(C(=O)NCC(O)CN3CCc4ccccc4C3)c2)C(CO)C1 (stereo not drawn) [Compound 115]	0.101 to 1		> 20		

The next lines start with results.

EC50 [1] [µM]	EC50 ([1]; In Cell Western methylation) [µM]	SMILES	EC50 (Z-138 cell line; 120 h, Z-138 cells, 5 days) [µM]	EC50 (Z-138 cell line; Z-138, 120 h) [µM]	EC50 (Z-138 cell line; 120 h, Z-138 cells, 5 days, Cell Titer Glo) [µM]
< 0.1		CN(C)C(=O)CN1CCN(Cc2cccc(C(=O)NCC(O)CN3CCc4ccccc4C3)c2)CC1 (stereo not drawn) [Compound 174]	1 to 10		
< 0.1		CN1CCN(Cc2ccc(C(=O)NCC(O)CN3CCc4ccccc4C3)cc2)CC1 (stereo not drawn) [Compound 163]	1 to 10		
< 0.1		CS(=O)(=O)N1CCC(Nc2cc(C(=O)NC[C@H](O)CN3CCc4ccccc4C3)ncn2)C1 (stereo partly drawn) [Compound 257]	1 to 10		
< 0.1		O=C(NCC(O)CN1CCc2ccccc2C1)c1cc(NC2CCOCC2)ncn1 (stereo not drawn) [Compound 63]	0.101 to 1		
< 0.1		O=C(NC[C@H](O)CN1CCc2ccccc2C1)c1ccnc(OC2CCN(CC(F)(F)F)CC2)c1 [Compound 203]	0.101 to 1		
< 0.1		O=C(NCC(O)CN1CCc2ccccc2C1)c1cccc(C2CCOCC2)c1 (stereo not drawn) [Compound 99]	1 to 10		
< 0.1		O=C(NCC(O)CN1CCc2ccccc2C1)c1cc(F)cc(NC2CCOCC2)c1 (stereo not drawn) [Compound 78]	0.101 to 1		
< 0.1		O=C(NCC(O)CN1CCc2ccccc2C1)c1ccc(F)c(NC2CCOCC2)c1 (stereo not drawn) [Compound 65]	1 to 10		
< 0.1		O=C(NCC(O)CN1CCc2ccccc2C1)c1ccc(N2CCS(=O)(=O)CC2)cc1 (stereo not drawn) [Compound 179]	1 to 10		
< 0.1		CN1CCC(Nc2cc(C(=O)NC[C@H](O)CN3CCc4ccccc4C3)ccn2)C1 (stereo partly drawn) [Compound 255]	1 to 10		
< 0.1		O=C(NCC(O)CN1CCc2ccccc2C1)c1cccc(OC2CCN(CC(F)(F)F)C2)c1 (stereo not drawn) [Compound 137]	1 to 10		
< 0.1		CS(=O)(=O)N1CCC(Nc2cc(C(=O)NC[C@H](O)CN3CCc4ccccc4C3)ccn2)CC1 [Compound 225]	< 0.1		
< 0.1		CC(=O)N1CC[C@H](Nc2cccc(C(=O)NC[C@H](O)CN3CCc4ccccc4C3)c2)C1 [Compound 266]	0.101 to 1		
< 0.1		CN(CCNc1cc(C(=O)NC[C@H](O)CN2CCc3ccccc3C2)ccn1)S(C)(=O)=O [Compound 262]	0.101 to 1		
< 0.1		CC(C)N1CCC(Nc2cccc(C(=O)NCC(O)CN3CCc4ccccc4C3)c2)C1 (stereo not drawn) [Compound 101]	10 to 50		
< 0.1		Cc1c(NC2CCOCC2)ncnc1C(=O)NC[C@H](O)CN1CCc2ccccc2C1 [Compound 231]	1 to 10		
< 0.1		CC(=O)N1CCC(Oc2cccc(C(=O)NCC(O)CN3CCc4ccccc4C3)c2)C1 (stereo not drawn) [Compound 136]	1 to 10		
< 0.1		CS(=O)(=O)N1CC[C@H](Nc2cccc(C(=O)NC[C@H](O)CN3CCc4ccccc4C3)c2)C1 [Compound 268]	0.101 to 1		
< 0.1		CS(=O)(=O)N1CCC(Oc2ccc(C(=O)NCC(O)CN3CCc4ccccc4C3)cc2)CC1 (stereo not drawn) [Compound 108]	0.101 to 1		
< 0.1		O=C(NC[C@H](O)CN1CCc2ccccc2C1)c1ccnc(NC2CCN(CC(F)(F)F)CC2)c1 [Compound 224]	0.101 to 1		
< 0.1		CS(=O)(=O)N1CC(Nc2cc(C(=O)NC[C@H](O)CN3CCc4ccccc4C3)ncn2)C1 [Compound 283]	0.101 to 1		
< 0.1		O=C(NC[C@H](O)CN1CCc2ccccc2C1)c1cncc(OC2CCOCC2)c1 [Compound 183]	1 to 10		
< 0.1		O=C(NC[C@H](O)CN1CCc2ccccc2C1)c1cc(NC2CCOCC2)ncn1 [Compound 193]	0.101 to 1		
< 0.1		O=C(NC[C@H](O)CN1CCc2ccccc2C1)c1ccnc(NC2CCOC2)c1 (stereo partly drawn) [Compound 306]	< 0.1		
< 0.1		CS(=O)(=O)N1CCC(Nc2cccc(C(=O)NCC(O)CN3CCc4ccccc4C3)c2)C1 (stereo not drawn) [Compound 122]	0.101 to 1		
